Key:
Conditions in all cases: 72 h
BV-173 [1] = assay: cell viability (% survival relative to DMSO control, bortezomib = 0%); higher = less cytotoxic
In short: (§1)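 Percent survival is reported as the mean of duplicate wells. Cells from 10 AML and 5 CML lines were plated in 384-well plates containing compounds at 1, 10, 100, 1000 or 10000 nM and kept for 72 h at 37 °C in 5% CO2. Readout used CellTiter-Glo luminescence, scaled so that vehicle equals 100% and a 10 µM positive control equals 0%.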

LAMA-84 [2] = assay: as above
In short: as §1

MV4-11 [3] = assay: as above
In short: as §1

Mono-Mac-6 [4] = assay: as above
In short: as §1

ML-2 [5] = assay: as above
In short: as §1

KCL-22 [6] = assay: as above
In short: as §1

NOMO-1 [7] = assay: as above
In short: as §1

KU-812 [8] = assay: as above
In short: as §1

THP-1 [9] = assay: as above
In short: as §1

K-562 [10] = assay: as above
In short: as §1

MOLM-13 [11] = assay: as above
In short: as §1

KG-1 [12] = assay: as above
In short: as §1

HEL [13] = assay: as above
In short: as §1

HL-60 [14] = assay: as above
In short: as §1

SHI-1 [15] = assay: as above
In short: as §1

BV-173 [16] = test system: BV-173
In short: (§2)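 Fifteen myeloid leukaemia cell lines were seeded in RPMI 1640 at densities titrated to the linear growth range and placed in 384-well plates with acoustically pre-printed compounds at five tenfold doses from 1 to 10,000 nM, in duplicate. After 72 h at 37 °C with 5% CO2, luminescent ATP viability was normalised to vehicle and to a positive control at 10 µM, and curves were fitted with a four-parameter log-logistic model. The IC50 was obtained from these fits.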

LAMA-84 [17] = test system: LAMA-84
In short: as §2

MV4-11 [18] = test system: MV4-11
In short: as §2

Mono-Mac-6 [19] = test system: Mono-Mac-6
In short: as §2

ML-2 [20] = test system: ML-2
In short: as §2

KCL-22 [21] = test system: KCL-22
In short: as §2

NOMO-1 [22] = test system: NOMO-1
In short: as §2

KU-812 [23] = test system: KU-812
In short: as §2

THP-1 [24] = test system: THP-1
In short: as §2

K-562 [25] = test system: K-562
In short: as §2

MOLM-13 [26] = test system: MOLM-13
In short: as §2

KG-1 [27] = test system: KG-1
In short: as §2

HEL [28] = test system: HEL
In short: as §2

HL-60 [29] = test system: HL-60
In short: as §2

SHI-1 [30] = test system: SHI-1
In short: as §2

O=C(/C=C/c1cccnc1)NCCCCC1CCN(C(=O)c2ccccc2)CC1 [Daporinad]
cell viability [%]
Conditions	1 nM	10 nM	100 nM	1000 nM	10000 nM
BV-173 [1]	15.7	1.15	0.0754	0.00943	0.321
HEL [13]	85.7	2.97	1.75	1.48	1.85
HL-60 [14]	63.1	6.64	-0.363	-0.298	-0.289
K-562 [10]	86.5	20.4	1.83	0.861	1.37
KCL-22 [6]	83.9	10.3	1.38	1.35	1.59
KG-1 [12]	88	25.3	10.8	8.29	7.46
KU-812 [8]	71.9	14.8	5.16	5.8	4.77
LAMA-84 [2]	83.1	6.18	2.02	1.79	2.17
ML-2 [5]	66	1.63	0.115	0.00307	-0.274
MOLM-13 [11]	69.1	15.7	0.0519	0.204	-0.318
MV4-11 [3]	25.5	0.401	0.0312	-0.345	-0.425
Mono-Mac-6 [4]	99.2	75.4	16.7	16.4	0.909
NOMO-1 [7]	34.5	1.36	0.217	0.164	0.267
SHI-1 [15]	86.7	107	83	68.9	75.5
THP-1 [9]	85.6	120	102	104	101

Conditions	IC50 (cell viability) [nM]
BV-173 [16]	< 1
HEL [28]	2.33
HL-60 [29]	1.47
K-562 [25]	3.78
KCL-22 [21]	3.31
KG-1 [27]	3.63
KU-812 [23]	3.34
LAMA-84 [17]	2.18
ML-2 [20]	1.39
MOLM-13 [26]	3.69
MV4-11 [18]	< 1
Mono-Mac-6 [19]	20.6
NOMO-1 [22]	< 1
SHI-1 [30]	> 10000
THP-1 [24]	> 10000
